Test results published in ChEMBL document CHEMBL1681704, “Design and synthesis of novel allosteric MEK inhibitor CH4987655 as an orally available anticancer agent” (Bioorg Med Chem Lett, 2011).
Converted amounts (≈) assume the structure as drawn. The source made the active and inactive calls. No cut-off for these calls is given here.

How the values were obtained:
[1] = Inhibition of MEK after 30 mins
HT-29 [2] = assay: Cytotoxicity against human HT-29 cells after 4 days; format: functional, cell-based; conditions: HT-29, 96 h
[3] = Solubility in 50 mM phosphate buffer at pH 6.5 after 2 hrs; format: physicochemical
[4] = Half life in mouse liver microsomes at 1 uM; format: ADME, Microsome
QG-56 = assay: Cytotoxicity against human QG56 cells after 4 days; format: functional, cell-based; conditions: QG-56, 96 h
[5] = Half life in human liver microsomes at 1 uM; format: ADME, Microsome
HT-29 [6] = assay: Antitumor activity against human HT-29 cells xenografted in BALB/c nu/nu mouse assessed as tumor growth inhibition at maximum tolerable dose administered as po qd for 14 days; format: functional
[7] = Toxicity in human HT-29 cells xenografted BALB/c nu/nu mouse assessed as maximum tolerable dose; format: organism-based; conditions: in vivo
Cynomolgus monkey = assay: In vivo metabolic stability in cynomolgus monkey assessed as plasma concentration at 2 mg/kg, po; format: ADME, organism-based, Macaca fascicularis; set-up: dose 2 mg/kg, route oral
HT-29 [8] = assay: Inhibition of MEK in human HT-29 cells xenografted in BALB/c nu/nu mouse tumor assessed as phosphorylated ERK level at maximum tolerable dose administered as po; format: functional, cell-based; conditions: Neoplasm
[9] = MRT (infinity) in cynomolgus monkey at 6 mg/kg, po; format: ADME, organism-based, Macaca fascicularis; set-up: dose 6 mg/kg, route oral; conditions: in vivo
[10] = AUC (infinity) in cynomolgus monkey at 6 mg/kg, po; format: ADME, organism-based, Macaca fascicularis; set-up: time infinity, dose 6 mg/kg, route oral; conditions: plasma
Brain = assay: Inhibition of MEK in human HT-29 cells xenografted in BALB/c nu/nu mouse brain assessed as phosphorylated ERK level at maximum tolerable dose administered as po; format: functional, cell-based
[11] = Tmax in cynomolgus monkey at 6 mg/kg, po; format: ADME, organism-based, Macaca fascicularis; set-up: dose 6 mg/kg, route oral; conditions: in vivo
[12] = Half life in cynomolgus monkey at 6 mg/kg, po; format: ADME, organism-based, Macaca fascicularis; set-up: dose 6 mg/kg, route oral; conditions: in vivo
[13] = Cmax in cynomolgus monkey at 6 mg/kg, po; format: ADME, organism-based, Macaca fascicularis; set-up: dose 6 mg/kg, route oral; conditions: in vivo
[14] = AUC (infinity) in cynomolgus monkey at 3 mg/kg, po; format: ADME, organism-based, Macaca fascicularis; set-up: time infinity, dose 3 mg/kg, route oral; conditions: plasma
[15] = Tmax in cynomolgus monkey at 3 mg/kg, po; format: ADME, organism-based, Macaca fascicularis; set-up: dose 3 mg/kg, route oral; conditions: in vivo
[16] = Antitumor activity against human H441 cells expressing Kras G12V mutant xenografted in CAnN.Cg-Foxn1 nu/CrlCrlj mouse assessed as tumor regression at maximum tolerable dose administered as po qd for 14 days; format: functional, NCI-H441
PANC-1 = assay: Antitumor activity against human PANC1 cells expressing Kras […] mutant xenografted in CAnN.Cg-Foxn1 nu/CrlCrlj mouse assessed as tumor regression at maximum tolerable dose administered as po qd for 14 days; format: functional
[17] = Cmax in cynomolgus monkey at 3 mg/kg, po; format: ADME, organism-based, Macaca fascicularis; set-up: dose 3 mg/kg, route oral; conditions: in vivo
[18] = MRT (infinity) in cynomolgus monkey at 1.5 mg/kg, po; format: ADME, organism-based, Macaca fascicularis; set-up: dose 1.5 mg/kg, route oral; conditions: in vivo
[19] = Half life in cynomolgus monkey at 1.5 mg/kg, po; format: ADME, organism-based, Macaca fascicularis; set-up: dose 1.5 mg/kg, route oral; conditions: in vivo
[20] = Cmax in cynomolgus monkey at 1.5 mg/kg, po; format: ADME, organism-based, Macaca fascicularis; set-up: dose 1.5 mg/kg, route oral; conditions: in vivo
Cytochrome P450 3A4 = Cytochrome P450 3A4 (Homo sapiens, UniProt P08684); assay: Inhibition of CYP3A4; format: ADME
Sequence of Cytochrome P450 3A4 (P08684 whole entry): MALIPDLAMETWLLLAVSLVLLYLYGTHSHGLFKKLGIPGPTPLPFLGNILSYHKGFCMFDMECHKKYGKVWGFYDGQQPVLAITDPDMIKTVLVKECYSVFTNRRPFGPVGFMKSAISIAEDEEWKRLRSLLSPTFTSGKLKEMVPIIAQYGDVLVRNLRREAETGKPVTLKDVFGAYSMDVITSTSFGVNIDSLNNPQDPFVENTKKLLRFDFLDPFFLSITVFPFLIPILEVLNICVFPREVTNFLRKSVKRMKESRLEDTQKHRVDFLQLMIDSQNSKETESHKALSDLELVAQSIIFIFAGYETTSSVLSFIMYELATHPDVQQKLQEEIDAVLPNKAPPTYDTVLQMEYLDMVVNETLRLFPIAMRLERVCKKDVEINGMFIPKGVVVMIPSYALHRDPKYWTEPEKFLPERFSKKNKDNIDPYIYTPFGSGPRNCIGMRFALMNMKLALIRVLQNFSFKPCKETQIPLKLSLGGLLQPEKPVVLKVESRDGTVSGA

[21] = MRT (infinity) in cynomolgus monkey at 3 mg/kg, po; format: ADME, organism-based, Macaca fascicularis; set-up: dose 3 mg/kg, route oral; conditions: in vivo
[22] = Tmax in cynomolgus monkey at 1.5 mg/kg, po; format: ADME, organism-based, Macaca fascicularis; set-up: dose 1.5 mg/kg, route oral; conditions: in vivo
[23] = target: Voltage-gated inwardly rectifying potassium channel KCNH2 (Homo sapiens, UniProt Q12809); assay: Inhibition of human ERG
Sequence of Voltage-gated inwardly rectifying potassium channel KCNH2 (Q12809 whole entry): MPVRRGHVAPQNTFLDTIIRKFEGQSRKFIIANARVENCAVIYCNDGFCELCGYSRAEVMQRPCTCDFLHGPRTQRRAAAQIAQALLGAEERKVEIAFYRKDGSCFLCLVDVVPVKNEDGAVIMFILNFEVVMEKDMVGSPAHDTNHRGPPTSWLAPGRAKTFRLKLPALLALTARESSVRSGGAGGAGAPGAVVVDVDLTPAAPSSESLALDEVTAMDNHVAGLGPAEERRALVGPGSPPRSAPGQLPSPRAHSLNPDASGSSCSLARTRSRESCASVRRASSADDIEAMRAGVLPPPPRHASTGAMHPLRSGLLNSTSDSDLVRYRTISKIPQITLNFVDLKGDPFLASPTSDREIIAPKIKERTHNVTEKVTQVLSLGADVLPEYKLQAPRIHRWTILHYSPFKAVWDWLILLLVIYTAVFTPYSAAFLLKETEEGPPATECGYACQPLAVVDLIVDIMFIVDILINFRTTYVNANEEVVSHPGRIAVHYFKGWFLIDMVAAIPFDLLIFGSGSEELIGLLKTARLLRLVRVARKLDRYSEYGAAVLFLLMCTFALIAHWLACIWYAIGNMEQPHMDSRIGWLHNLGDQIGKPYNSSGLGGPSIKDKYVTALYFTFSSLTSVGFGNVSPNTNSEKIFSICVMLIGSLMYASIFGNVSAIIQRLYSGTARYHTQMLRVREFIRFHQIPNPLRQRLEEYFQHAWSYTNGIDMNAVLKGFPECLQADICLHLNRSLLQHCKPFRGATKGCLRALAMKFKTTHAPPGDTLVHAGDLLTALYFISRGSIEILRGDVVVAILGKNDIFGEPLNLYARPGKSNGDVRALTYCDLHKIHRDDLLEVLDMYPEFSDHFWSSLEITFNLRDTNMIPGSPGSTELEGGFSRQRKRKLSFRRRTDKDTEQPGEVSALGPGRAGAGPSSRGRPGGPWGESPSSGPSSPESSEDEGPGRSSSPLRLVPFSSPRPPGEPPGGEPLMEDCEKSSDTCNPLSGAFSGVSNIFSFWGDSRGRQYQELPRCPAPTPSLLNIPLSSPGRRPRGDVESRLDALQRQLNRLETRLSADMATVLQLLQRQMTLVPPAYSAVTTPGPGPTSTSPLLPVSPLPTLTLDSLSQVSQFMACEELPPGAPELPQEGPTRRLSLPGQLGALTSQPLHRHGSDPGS

[24] = Half life in cynomolgus monkey at 3 mg/kg, po; format: ADME, organism-based, Macaca fascicularis; set-up: dose 3 mg/kg, route oral; conditions: in vivo
[25] = Genotoxicity in Salmonella Typhimurium by Ames test; format: toxicity; conditions: salmonella enterica subsp. enterica serovar typhimurium
[26] = AUC (infinity) in cynomolgus monkey at 1.5 mg/kg, po; format: ADME, organism-based, Macaca fascicularis; set-up: time infinity, dose 1.5 mg/kg, route oral; conditions: plasma
HT-29 [27] = assay: Antitumor activity against human HT-29 cells expressing b-Raf V600E mutant xenografted in CAnN.Cg-Foxn1 nu/CrlCrlj mouse assessed as tumor regression at maximum tolerable dose administered as po qd for 14 days; format: functional

## O=C(NOCCO)c1cc(CN2CCCC2=O)c(F)c(F)c1Nc1ccc(I)cc1F
[1]
  IC50: 85 nM
HT-29 [2]
  IC50: 20 nM
[3]
  solubility at 2 h: 156 µM (≈ 85.7 µg/mL)
[4]
  half-life at 1 µM: 2.07 h
QG-56
  IC50: 57 nM
[5]
  half-life at 1 µM: 3.08 h

## O=C(NOCCO)c1cc(/C=N\OCCO)c(F)c(F)c1Nc1ccc(I)cc1F
HT-29 [6]
  TGI: 95%
[1]
  IC50: 15 nM
HT-29 [2]
  IC50: 2.4 nM
[4]
  half-life at 1 µM: > 6 h
QG-56
  IC50: 6 nM
[7]
  MTD: 12.5 mg/kg
[5]
  half-life at 1 µM: > 6 h

## O=C(NOC[C@H](O)CO)c1ccc(F)c(F)c1Nc1ccc(I)cc1F [MIRDAMETINIB]
Cynomolgus monkey
  Stability: Stable
HT-29 [8]
  inhibition: Active
[9]
  MRT inf: 7.3 h
[10]
  AUC(0-inf): 7900 ng·h/mL
Brain
  inhibition: Active
[11]
  Tmax: 1.1 h
[12]
  half-life: 5.5 h
[13]
  Cmax: 1700 ng/mL

## O=C(NOCCO)c1cc(CN2CCOC2=O)c(F)c(F)c1Nc1ccc(I)cc1F
[1]
  IC50: > 250 nM
HT-29 [2]
  IC50: 560 nM
[3]
  solubility at 2 h: 284 µM (≈ 157 µg/mL)
[4]
  half-life at 1 µM: > 6 h
QG-56
  IC50: 3060 nM
[5]
  half-life at 1 µM: > 6 h

## O=C(NOCCO)c1cc(/C=N/OCCO)c(F)c(F)c1Nc1ccc(I)cc1F
HT-29 [6]
  TGI: 82%
[1]
  IC50: 100 nM
HT-29 [2]
  IC50: 80 nM
[4]
  half-life at 1 µM: 3.95 h
QG-56
  IC50: 160 nM
[7]
  MTD: 100 mg/kg
[5]
  half-life at 1 µM: 1.08 h

## O=C(NOCCO)c1cc(CNOCCO)c(F)c(F)c1Nc1ccc(I)cc1F
[4]
  half-life at 1 µM: 2.13 h
[7]
  MTD: 100 mg/kg
[5]
  half-life at 1 µM: > 6 h

## O=C(NOCCO)c1cc(CN2OCCCC2=O)c(F)c(F)c1Nc1ccc(I)cc1F [RO-4987655]
[14]
  AUC(0-inf): 7400 ng·h/mL
[15]
  Tmax: 2.5 h
[16]
  Activity: 70%
HT-29 [8]
  inhibition: Active
PANC-1
  Activity: 70%
[9]
  MRT inf: 7.3 h
[17]
  Cmax: 1000 ng/mL
[18]
  MRT inf: 8.4 h
[10]
  AUC(0-inf): 10400 ng·h/mL
[19]
  half-life: 6.6 h
Brain
  inhibition: inactive
[20]
  Cmax: 400 ng/mL
[11]
  Tmax: 1.5 h
Cytochrome P450 3A4
  IC50: > 100000 nM
[21]
  MRT inf: 8.8 h
[22]
  Tmax: 1.3 h
[23]
  inhibition (INH): Not Active
[12]
  half-life: 5 h
[24]
  half-life: 6 h
[25]
  Activity: Non-toxic
[4]
  half-life at 1 µM: > 6 h
[26]
  AUC(0-inf): 2200 ng·h/mL
[13]
  Cmax: 2100 ng/mL
HT-29 [27]
  Activity: 70%
[5]
  half-life at 1 µM: 1.93 h

## CON(Cc1cc(C(=O)NOCCO)c(Nc2ccc(I)cc2F)c(F)c1F)C(C)=O
[3]
  solubility at 2 h: 116 µM (≈ 64.2 µg/mL)
[4]
  half-life at 1 µM: 0.6 h
[7]
  MTD: 25 mg/kg
[5]
  half-life at 1 µM: 1.07 h

## O=C(NOCCO)c1cc(CN2OCCC2=O)c(F)c(F)c1Nc1ccc(I)cc1F
[4]
  half-life at 1 µM: > 6 h
[7]
  MTD: 12.5 mg/kg
[5]
  half-life at 1 µM: > 6 h

## C#Cc1ccc(Nc2c(C(=O)NOCCO)cc(/C=N/OCCO)c(F)c2F)c(F)c1
HT-29 [6]
  TGI: 82%
[1]
  IC50: 235 nM
HT-29 [2]
  IC50: 150 nM
[4]
  half-life at 1 µM: 2.25 h
QG-56
  IC50: 160 nM
[7]
  MTD: > 200 mg/kg
[5]
  half-life at 1 µM: 1.33 h

## CC(C)(O)CO/N=C/c1cc(C(=O)NOCCO)c(Nc2ccc(I)cc2F)c(F)c1F
HT-29 [6]
  TGI: 85%
[1]
  IC50: 37 nM
HT-29 [2]
  IC50: 40 nM
[4]
  half-life at 1 µM: > 6 h
QG-56
  IC50: 128 nM
[7]
  MTD: 100 mg/kg
[5]
  half-life at 1 µM: > 6 h

## O=C(NOCCO)c1cc(CN2OCCOC2=O)c(F)c(F)c1Nc1ccc(I)cc1F
[1]
  IC50: 42 nM
HT-29 [2]
  IC50: 17 nM
[3]
  solubility at 2 h: 57 µM (≈ 32.3 µg/mL)
[4]
  half-life at 1 µM: 2.1 h
QG-56
  IC50: 56 nM
[5]
  half-life at 1 µM: 0.633 h

## CC(=O)NCCO/N=C/c1cc(C(=O)NOCCO)c(Nc2ccc(I)cc2F)c(F)c1F
HT-29 [6]
  TGI: 99%
[1]
  IC50: 48 nM
HT-29 [2]
  IC50: 86 nM
[4]
  half-life at 1 µM: > 6 h
QG-56
  IC50: 199 nM
[7]
  MTD: > 200 mg/kg
[5]
  half-life at 1 µM: > 6 h

## O=C(NOCCO)c1cc(COCCO)c(F)c(F)c1Nc1ccc(I)cc1F
[4]
  half-life at 1 µM: > 6 h
[7]
  MTD: 50 mg/kg
[5]
  half-life at 1 µM: > 6 h

## CS(=O)(=O)CCO/N=C/c1cc(C(=O)NOCCO)c(Nc2ccc(I)cc2F)c(F)c1F
HT-29 [6]
  TGI: 98%
[1]
  IC50: 67 nM
HT-29 [2]
  IC50: 27 nM
[3]
  solubility at 2 h: 1 µM (≈ 0.601 µg/mL)
[4]
  half-life at 1 µM: > 6 h
QG-56
  IC50: 24 nM
[7]
  MTD: > 200 mg/kg
[5]
  half-life at 1 µM: 1.5 h
